Test system: control human primary myoblasts
Experiment: Expression microarray of primary myoblasts transduced with lentivirus carrying DUX4-fl, DUX4-s or GFP
Procedure: Primary human myoblasts were collected and cultured as previously described (Snider et al., 2010). Primary myoblasts were maintained at or below 70% confluency for proliferation. For differentiation, cells were allowed to reach 95-100% confluency in growth medium. Once confluency was reached, the cells were changed to differentiation medium (F10 media supplemented with 1% horse serum, 10 μg/mL insulin, and 10 μg/mL transferrin, penicillin/streptomycin) and maintained for 4 days. Human RD cells were grown in DMEM in 10% bovine calf serum (Hyclone) and penicillin/streptomycin. The primary myoblasts were transduced with lentivirus carrying DUX-fl, DUX4- or GFP (MOI=15).
Expression microarrays were performed on the transduced cells at 24 hours after transduction as follows. […] Samples were analyzed by Illumina Human Whole Genome microarrays. Probe intensities were corrected, normalized, and summarized by the Lumi package of Bioconductor (Du et al., 2008). Differentially expressed genes were identified by the LIMMA package of Bioconductor (Wettenhall and Smyth, 2004). Gene set enrichment analysis (GSEA) was performed using the Bioconductor GOstats package (Falcon and Gentleman, 2007).

For “DUX4-fl: full-length DUX4 protein (SEQ ID NO:110), expressed from lentiviral or pCS2 vectors or in vitro translated”, the MT1A expression fc (cultured human skeletal muscle) was −1.526, the MT2A expression fc (cultured human skeletal muscle) was −1.443 and the MUC1 expression fc (cultured human skeletal muscle) was −1.74. It also gave an MYBPHL expression fc (cultured human skeletal muscle) of −1.492, an MYF5 expression fc (cultured human skeletal muscle) of −1.587 and an MYH13 expression fc (cultured human skeletal muscle) of −1.441. It also gave an NACC2 expression fc (cultured human skeletal muscle) of −1.787, an NFIL3 expression fc (cultured human skeletal muscle) of −1.823 and an NFKB1 expression fc (cultured human skeletal muscle) of −1.512. It also gave an NFKBIZ expression fc (cultured human skeletal muscle) of −1.572, an NINJ1 expression fc (cultured human skeletal muscle) of −1.694 and an NPTX2 expression fc (cultured human skeletal muscle) of −1.386. For the same substance, the NRXN2 expression fc (cultured human skeletal muscle) was −1.627, the NT5E expression fc (cultured human skeletal muscle) was −1.558 and the OCEL1 expression fc (cultured human skeletal muscle) was −1.412. For the same substance, the P2RX6 expression fc (cultured human skeletal muscle) was −1.475, the PARP3 expression fc (cultured human skeletal muscle) was −1.483 and the PCK2 expression fc (cultured human skeletal muscle) was −1.776. It also gave a PCTK3 expression fc (cultured human skeletal muscle) of −1.641, a PDK4 expression fc (cultured human skeletal muscle) of −1.521 and a PDPN expression fc (cultured human skeletal muscle) of −1.623. It also gave a PFKFB4 expression fc (cultured human skeletal muscle) of −1.865, a PHF15 expression fc (cultured human skeletal muscle) of −1.415 and a PHLDA3 expression fc (cultured human skeletal muscle) of −1.557. For the same substance, the PLA2G4C expression fc (cultured human skeletal muscle) was −1.429, the PLEKHA4 expression fc (cultured human skeletal muscle) was −1.457 and the PLIN2 expression fc (cultured human skeletal muscle) was −1.413. It also gave a PLXNB1 expression fc (cultured human skeletal muscle) of −1.442, a PLXNB2 expression fc (cultured human skeletal muscle) of −1.649 and a PPAP2B expression fc (cultured human skeletal muscle) of −1.742. It also gave a PPP3CC expression fc (cultured human skeletal muscle) of −1.457, a PRDM1 expression fc (cultured human skeletal muscle) of −1.573 and a PRKCD expression fc (cultured human skeletal muscle) of −1.531. The PSMB10 expression fc (cultured human skeletal muscle) was −1.6, the PSME2 expression fc (cultured human skeletal muscle) was −1.477 and the PTGES expression fc (cultured human skeletal muscle) was −1.632. The PTPRU expression fc (cultured human skeletal muscle) was −1.477, the RALGDS expression fc (cultured human skeletal muscle) was −1.475 and the RBCK1 expression fc (cultured human skeletal muscle) was −1.636. The RBM43 expression fc (cultured human skeletal muscle) was −1.517, the RCAN1 expression fc (cultured human skeletal muscle) was −1.566 and the RELB expression fc (cultured human skeletal muscle) was −1.391. For the same substance, the RGS20 expression fc (cultured human skeletal muscle) was −1.478, the RHBDF2 expression fc (cultured human skeletal muscle) was −1.741 and the RRAS expression fc (cultured human skeletal muscle) was −1.405. For the same substance, the RRBP1 expression fc (cultured human skeletal muscle) was −1.483, the RTKN expression fc (cultured human skeletal muscle) was −1.734 and the RTTN expression fc (cultured human skeletal muscle) was −1.663. For the same substance, the RUSC1 expression fc (cultured human skeletal muscle) was −1.47, the SERPING1 expression fc (cultured human skeletal muscle) was −1.668 and the SESN1 expression fc (cultured human skeletal muscle) was −1.581. For the same substance, the SHISA5 expression fc (cultured human skeletal muscle) was −1.763, the SIX5 expression fc (cultured human skeletal muscle) was −1.673 and the SLC16A3 expression fc (cultured human skeletal muscle) was −1.582. It also gave an SLC22A18 expression fc (cultured human skeletal muscle) of −1.56, an SLC25A28 expression fc (cultured human skeletal muscle) of −1.534 and an SLC39A14 expression fc (cultured human skeletal muscle) of −1.872. For the same substance, the SPTLC3 expression fc (cultured human skeletal muscle) was −1.444, the SQSTM1 expression fc (cultured human skeletal muscle) was −1.695 and the SRGN expression fc (cultured human skeletal muscle) was −1.873. For the same substance, the STC1 expression fc (cultured human skeletal muscle) was −1.571, the STEAP3 expression fc (cultured human skeletal muscle) was −1.405 and the SUSD2 expression fc (cultured human skeletal muscle) was −1.398. The TAPBP expression fc (cultured human skeletal muscle) was −1.844, the TCEA3 expression fc (cultured human skeletal muscle) was −1.706 and the TCP11L1 expression fc (cultured human skeletal muscle) was −1.532. The TMEM45A expression fc (cultured human skeletal muscle) was −1.574, the TMEM173 expression fc (cultured human skeletal muscle) was −1.816 and the TNFAIP2 expression fc (cultured human skeletal muscle) was −1.593. The TNFRSF1A expression fc (cultured human skeletal muscle) was −1.672, the TNFRSF6B expression fc (cultured human skeletal muscle) was −1.678 and the TNFSF13B expression fc (cultured human skeletal muscle) was −1.763. The TNS3 expression fc (cultured human skeletal muscle) was −1.56, the TRAF3IP2 expression fc (cultured human skeletal muscle) was −1.529 and the TRIP6 expression fc (cultured human skeletal muscle) was −1.457. The TRNP1 expression fc (cultured human skeletal muscle) was −1.527, the TSC22D3 expression fc (cultured human skeletal muscle) was −1.729 and the VASN expression fc (cultured human skeletal muscle) was −1.76. The VEZF1 expression fc (cultured human skeletal muscle) was −1.528, the XBP1 expression fc (cultured human skeletal muscle) was −1.679 and the ZBTB4 expression fc (cultured human skeletal muscle) was −1.417. For the same substance, the ZC3H12A expression fc (cultured human skeletal muscle) was −1.546, the ZFHX3 expression fc (cultured human skeletal muscle) was −1.762 and the ZFP36L2 expression fc (cultured human skeletal muscle) was −1.545. The ZFP90 expression fc (cultured human skeletal muscle) was −1.609, the ZNF337 expression fc (cultured human skeletal muscle) was −1.693 and the ZNF395 expression fc (cultured human skeletal muscle) was −1.392. For the same substance, the “Full.fc (expression fold change for DUX4-fl targets)” value (gene AVPI1) was 2, the “Full.fc (expression fold change for DUX4-fl targets)” value (gene BZW2) was 2.7 and the “Full.fc (expression fold change for DUX4-fl targets)” value (gene C1orf63) was 2.2. For the same substance, the “Full.fc (expression fold change for DUX4-fl targets)” value (gene C6orf191) was 2.1, the “Full.fc (expression fold change for DUX4-fl targets)” value (gene C14orf102) was 2.5 and the “Full.fc (expression fold change for DUX4-fl targets)” value (gene C14orf138) was 1.7. For the same substance, the “Full.fc (expression fold change for DUX4-fl targets)” value (gene C21orf91) was 1.8, the “Full.fc (expression fold change for DUX4-fl targets)” value (gene CBARA1) was 2.1 and the “Full.fc (expression fold change for DUX4-fl targets)” value (gene CCNA1) was 7.5. For the same substance, the “Full.fc (expression fold change for DUX4-fl targets)” value (gene CCNJ) was 2.7, the “Full.fc (expression fold change for DUX4-fl targets)” value (gene CLDN14) was 3.1 and the “Full.fc (expression fold change for DUX4-fl targets)” value (gene CLK1) was 1.8. The “Full.fc (expression fold change for DUX4-fl targets)” value (gene CSE1L) was 2.9, the “Full.fc (expression fold change for DUX4-fl targets)” value (gene CTNNAL1) was 1.6 and the “Full.fc (expression fold change for DUX4-fl targets)” value (gene CTR9) was 2.4. For the same substance, the “Full.fc (expression fold change for DUX4-fl targets)” value (gene DBR1) was 3.4, the “Full.fc (expression fold change for DUX4-fl targets)” value (gene DDX47) was 1.7 and the “Full.fc (expression fold change for DUX4-fl targets)” value (gene DEFB103A) was 6.4. The “Full.fc (expression fold change for DUX4-fl targets)” value (gene DENND2C) was 2.6, the “Full.fc (expression fold change for DUX4-fl targets)” value (gene EGLN1) was 1.6 and the “Full.fc (expression fold change for DUX4-fl targets)” value (gene EXOSC10) was 1.9. The “Full.fc (expression fold change for DUX4-fl targets)” value (gene FAM90A1) was 3.6, the “Full.fc (expression fold change for DUX4-fl targets)” value (gene FBXO33) was 3.2 and the “Full.fc (expression fold change for DUX4-fl targets)” value (gene FRG2B) was 2. The “Full.fc (expression fold change for DUX4-fl targets)” value (gene GPBAR1) was 1.9, the “Full.fc (expression fold change for DUX4-fl targets)” value (gene GTF2F1) was 3.2 and the “Full.fc (expression fold change for DUX4-fl targets)” value (gene HOXB2) was 2.2. For the same substance, the “Full.fc (expression fold change for DUX4-fl targets)” value (gene JUP) was 3.2, the “Full.fc (expression fold change for DUX4-fl targets)” value (gene KDM5B) was 1.8 and the “Full.fc (expression fold change for DUX4-fl targets)” value (gene KIF21A) was 1.8. The “Full.fc (expression fold change for DUX4-fl targets)” value (gene MAPKAP1) was 1.6, the “Full.fc (expression fold change for DUX4-fl targets)” value (gene MAST4) was 1.7 and the “Full.fc (expression fold change for DUX4-fl targets)” value (gene MED13) was 1.8. The “Full.fc (expression fold change for DUX4-fl targets)” value (gene NANS) was 1.9, the “Full.fc (expression fold change for DUX4-fl targets)” value (gene NFYA) was 2.3 and the “Full.fc (expression fold change for DUX4-fl targets)” value (gene PABPN1) was 2.6. For the same substance, the “Full.fc (expression fold change for DUX4-fl targets)” value (gene PANX2) was 3.8, the “Full.fc (expression fold change for DUX4-fl targets)” value (gene PELI1) was 2.9 and the “Full.fc (expression fold change for DUX4-fl targets)” value (gene PNP) was 7. The “Full.fc (expression fold change for DUX4-fl targets)” value (gene PPP2R2B) was 4.1, the “Full.fc (expression fold change for DUX4-fl targets)” value (gene PRAMEF12) was 7.8 and the “Full.fc (expression fold change for DUX4-fl targets)” value (gene PRPF18) was 1.7. For the same substance, the “Full.fc (expression fold change for DUX4-fl targets)” value (gene PRR4) was 3.6, the “Full.fc (expression fold change for DUX4-fl targets)” value (gene PTP4A1) was 1.7 and the “Full.fc (expression fold change for DUX4-fl targets)” value (gene PVRL3) was 2.2. The “Full.fc (expression fold change for DUX4-fl targets)” value (gene RBBP6) was 2, the “Full.fc (expression fold change for DUX4-fl targets)” value (gene RFPL1) was 8.4 and the “Full.fc (expression fold change for DUX4-fl targets)” value (gene RFPL2) was 7.3. For the same substance, the “Full.fc (expression fold change for DUX4-fl targets)” value (gene RFPL4B) was 8.3, the “Full.fc (expression fold change for DUX4-fl targets)” value (gene RTN4) was 1.6 and the “Full.fc (expression fold change for DUX4-fl targets)” value (gene SAMD8) was 1.6. For the same substance, the “Full.fc (expression fold change for DUX4-fl targets)” value (gene SEC61A2) was 1.8, the “Full.fc (expression fold change for DUX4-fl targets)” value (gene SFRS2B) was 4.2 and the “Full.fc (expression fold change for DUX4-fl targets)” value (gene SH3GL2) was 1.6. The “Full.fc (expression fold change for DUX4-fl targets)” value (gene SIAH1) was 3.7, the “Full.fc (expression fold change for DUX4-fl targets)” value (gene SNAI1) was 1.9 and the “Full.fc (expression fold change for DUX4-fl targets)” value (gene SON) was 2.1. The “Full.fc (expression fold change for DUX4-fl targets)” value (gene SPRYD5) was 1.8, the “Full.fc (expression fold change for DUX4-fl targets)” value (gene SPTY2D1) was 3.3 and the “Full.fc (expression fold change for DUX4-fl targets)” value (gene SRRT) was 2.6. The “Full.fc (expression fold change for DUX4-fl targets)” value (gene SYNJ1) was 2.4, the “Full.fc (expression fold change for DUX4-fl targets)” value (gene TAF4B) was 1.9 and the “Full.fc (expression fold change for DUX4-fl targets)” value (gene TFIP11) was 3.2. The “Full.fc (expression fold change for DUX4-fl targets)” value (gene TRIM43) was 8.1, the “Full.fc (expression fold change for DUX4-fl targets)” value (gene TRIM48) was 7.9 and the “Full.fc (expression fold change for DUX4-fl targets)” value (gene TRIM49L1) was 6.9. For the same substance, the “Full.fc (expression fold change for DUX4-fl targets)” value (gene TRIM49L2) was 6.9, the “Full.fc (expression fold change for DUX4-fl targets)” value (gene USP29) was 2.6 and the “Full.fc (expression fold change for DUX4-fl targets)” value (gene ZNF217) was 4.1. The “Full.fc (expression fold change for DUX4-fl targets)” value (gene ZNF296) was 5.5, the “Full.fc (expression fold change for DUX4-fl targets)” value (gene ZNF705A) was 3.9 and the “Full.fc (expression fold change for DUX4-fl targets)” value (gene ZSCAN4) was 8.3. The “Full.fc (expression fold change for DUX4-fl targets)” value (gene ZSCAN5B) was 3.8 and the “Full.fc (expression fold change for DUX4-fl targets)” value (gene hCG_1651160) was 8.3.

From patent US20140242093A1, “METHODS AND COMPOSITIONS FOR MODULATING THE INNATE IMMUNE RESPONSE AND/OR MYOGENESIS IN A MAMMALIAN SUBJECT” (FRED HUTCHINSON CANCER RESEARCH CENTER, priority 2011, published 2014)
